One may read the Ki as a measure of affinity in units of concentration, obtained from inhibition or displacement. In general, inhibition refers to how much of the control response was suppressed.

Where “and” joins values, the source holds several entries; their conditions need not be identical. Identical values can stand only once. Where a SMILES comes first, the peptide text is derived from it. Where no end group is shown, it is not given here.

Experiment [1] addresses extrinsic activation complex (factor VIIa:tissue factor) (Homo sapiens, UniProt P08709+P13726). Nature of the experiment: Rate of Factor Xa formation by the extrinsic activation complex, kinetic chromogenic assay. To be noted: for Factor Xa Formation (% of Control Rate) Extrinsic: 1 mg/ml (0.29-1.1 mM) peptide, 30 min at 37 degrees preincubation. It counts as biochemical.
The target in experiment [2] is T1, intrinsic activation complex (factor IXa:factor VIIIa) (Homo sapiens, UniProt P00451+P00740).
T1 construct: Factor IXa was produced from contact product (14) and isolated as previously described (12); made in house; host or cells: Factor IXa produced from isolated Factor IX with contact product; Factor VIII was a gift from Rorer Biotechnology, Inc
Kind of experiment: Rate of Factor Xa formation by the intrinsic activation complex, kinetic chromogenic assay. In kind it is biochemical. To be noted: for Factor Xa Formation (% of Control Rate) Intrinsic: 1 mg/ml (0.29-1.1 mM) peptide, 30 min at 37 degrees preincubation.

A further experiment deals with RVV-X (Daboia siamensis, UniProt Q4PRD1+Q4PRD2+Q7LZ61). Nature of the experiment: biochemical. The arrangement: species or system Russell's viper.
Experiment [3] concerns the target T2, Factor Xa:Factor Va complex (Homo sapiens, UniProt P12259).
T2 sequence (P12259 29-737 limits assumed): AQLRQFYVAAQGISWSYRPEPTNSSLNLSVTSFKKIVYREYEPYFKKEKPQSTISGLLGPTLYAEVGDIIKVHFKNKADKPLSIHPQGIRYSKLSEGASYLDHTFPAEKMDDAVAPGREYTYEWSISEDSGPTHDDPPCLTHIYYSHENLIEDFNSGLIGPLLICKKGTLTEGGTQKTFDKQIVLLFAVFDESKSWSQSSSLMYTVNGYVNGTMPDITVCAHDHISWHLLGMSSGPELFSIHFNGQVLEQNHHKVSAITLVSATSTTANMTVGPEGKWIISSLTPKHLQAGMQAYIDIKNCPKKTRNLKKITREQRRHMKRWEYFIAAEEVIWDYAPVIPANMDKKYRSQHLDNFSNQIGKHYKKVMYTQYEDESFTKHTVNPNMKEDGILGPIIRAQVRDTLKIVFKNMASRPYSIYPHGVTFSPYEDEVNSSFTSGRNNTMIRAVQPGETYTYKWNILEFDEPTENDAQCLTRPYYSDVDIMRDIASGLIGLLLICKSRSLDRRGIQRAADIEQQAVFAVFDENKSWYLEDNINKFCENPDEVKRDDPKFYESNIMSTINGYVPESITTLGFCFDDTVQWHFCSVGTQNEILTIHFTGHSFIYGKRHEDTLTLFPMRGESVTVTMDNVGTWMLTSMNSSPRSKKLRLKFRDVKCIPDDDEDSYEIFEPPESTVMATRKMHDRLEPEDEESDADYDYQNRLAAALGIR
T2 sequence (P12259 1574-2224 limits assumed): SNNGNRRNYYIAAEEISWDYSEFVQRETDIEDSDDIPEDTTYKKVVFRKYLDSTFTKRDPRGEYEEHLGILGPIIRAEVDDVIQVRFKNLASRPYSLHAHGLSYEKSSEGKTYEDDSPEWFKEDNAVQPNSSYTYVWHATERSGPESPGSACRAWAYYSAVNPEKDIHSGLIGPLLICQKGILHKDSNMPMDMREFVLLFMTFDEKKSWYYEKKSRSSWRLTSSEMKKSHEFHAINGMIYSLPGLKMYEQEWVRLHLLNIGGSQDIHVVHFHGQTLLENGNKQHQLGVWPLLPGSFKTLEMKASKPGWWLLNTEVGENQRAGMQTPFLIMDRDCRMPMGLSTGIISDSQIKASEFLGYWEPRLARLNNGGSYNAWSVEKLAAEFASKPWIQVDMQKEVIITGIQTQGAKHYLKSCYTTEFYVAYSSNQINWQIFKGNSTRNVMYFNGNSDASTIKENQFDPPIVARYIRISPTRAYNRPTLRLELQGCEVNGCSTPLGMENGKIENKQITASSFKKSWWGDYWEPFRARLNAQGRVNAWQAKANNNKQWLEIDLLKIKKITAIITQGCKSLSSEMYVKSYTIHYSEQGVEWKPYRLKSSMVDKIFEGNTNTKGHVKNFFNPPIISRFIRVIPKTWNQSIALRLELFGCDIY
Nature of the experiment: Rate of thrombin formation (prothrombin activation by Factor Xa), chromogenic assay. In kind it is biochemical. The note with it: for Thrombin Formation (% of Control Rate): 200 μM final concentration of peptide. On the procedure:
b. Rate of Thrombin Formation: The ability of the synthetic peptides to inhibit Factor Xa function was assessed by their capacity to impede the rate of thrombin formation using a purified system and employing a specific thrombin chromogenic substrate. To 10 ul of Factor V (1.5 nM) was added 10 ul of phospholipid vesicles (30 uM), 3.3 ul of CaCl2 (100 mM) and 57 ul of TBS-BSA or synthetic peptide. The mixture was incubated at 37 degrees Centigrade for 15 minutes, after which 20 ul of Factor Xa (12 pM) and prothrombin (0.35 uM) were added to initiate the reaction.
At defined time intervals from initiation of either reaction (a) or (b), 20 ul aliquots were removed and added to a microtiter plate containing 80 ul of 50 mM Tris-HCl, 225 mM NaCl, 10 mM EDTA, pH 8.2. […] The rate of Factor Xa or thrombin formation was calculated from the slope of linear regressions of data plotted as a function of the initial rate of hydrolysis (OD 405/min) versus time and expressed as OD 405/min/min.
Factor Xa associates with activated Factor Va on a phospholipid surface in the presence of calcium. A chromogenic assay was used to investigate the ability of the panel of synthetic peptides to inhibit the activation of prothrombin by Factor Xa. In preliminary experiments it was determined that similar results were obtained whether prothrombin was added before or after factor Xa and that the 15 minute incubation period was sufficient for the peptide-protein interactions to reach equilibrium. […] Seven peptides prevented thrombin formation by greater than 40% when compared to reactions containing buffer only. These peptides represented the amino acid sequences 211-222, 237-262, 254-269, 267-283, 284-303, 363-375, 417-431. Thus, a limited number of synthetic peptides representing the primary structure of Factor Xa could inhibit this reaction and these were analyzed further.

Experiment [4] deals with Factor X coagulant activity, intrinsic pathway. Kind of experiment: Two-stage clotting assay, intrinsic activation of Factor X.
Description: (§1) Coagulation Assays: The effect of the synthetic peptide and antibodies to them on Factor X coagulation activity was determined using two-stage clotting assays specific for Factor X activation by the intrinsic, extrinsic, and RVV-X activation enzyme complexes.
(§2) For determination of extrinsic activation of Factor X, 50 ul of bovine Factor VII/X deficient plasma was added 50 ul each of 1.5 nM Factor VII/VIIa, 1% tissue factor, 25 mM CaCl2, and peptide in TBS-BSA. Following incubation for 30 min at 37 degrees Centigrade, coagulation was initiated by the addition of 50 ul of 200 nM of Factor X, and the time for clot formation was measured. […] Factor X (50 ul of 105 nM) was added to initiate the reaction and the time for clot formation measured. […] Factor X and Xa activity was measured by the addition of 50 ul of 25 nM Factor X and the time for clot formation determined. […]
(§3) Analogous determinations of the CI50 values were measured in each of the specific coagulation assays outlined above. Factor X/Xa activity in the presence of varying concentrations of peptide was measured by comparing the clotting times to a standard curve constructed from the log of the clot time versus the log of Factor X concentration in the same incubation mixtures lacking peptides. […]
For experiment [5], the system named is Factor X coagulant activity, RVV-X pathway. Nature of the experiment: Two-stage clotting assay, RVV-X mediated activation of Factor X. The arrangement: species or system human.
Experiment [6] deals with Factor X coagulant activity, extrinsic pathway. Nature of the experiment: Two-stage clotting assay, extrinsic activation of Factor X.
Description: as §1, §2, §3
The mark [7] stands for this setting: 267-283 at 6 uM, 284-303 at 60 uM, 417-431 at 600 uM, alone or mixed.

Chain of extrinsic activation complex (factor VIIa:tissue factor) (P08709 61-212 limits assumed): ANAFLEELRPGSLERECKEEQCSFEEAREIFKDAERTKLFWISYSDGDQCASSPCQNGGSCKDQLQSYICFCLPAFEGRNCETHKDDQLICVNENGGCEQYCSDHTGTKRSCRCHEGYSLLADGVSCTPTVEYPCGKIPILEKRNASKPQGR
Chain of extrinsic activation complex (factor VIIa:tissue factor) (P08709 213-466 limits assumed): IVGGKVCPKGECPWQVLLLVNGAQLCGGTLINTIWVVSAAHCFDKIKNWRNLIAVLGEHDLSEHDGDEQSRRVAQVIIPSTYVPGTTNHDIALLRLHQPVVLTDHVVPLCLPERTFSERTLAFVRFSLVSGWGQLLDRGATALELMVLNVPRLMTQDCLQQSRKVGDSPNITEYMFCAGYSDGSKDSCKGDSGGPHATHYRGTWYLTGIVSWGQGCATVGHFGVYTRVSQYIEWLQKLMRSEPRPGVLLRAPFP
Chain of extrinsic activation complex (factor VIIa:tissue factor) (P13726 33-295): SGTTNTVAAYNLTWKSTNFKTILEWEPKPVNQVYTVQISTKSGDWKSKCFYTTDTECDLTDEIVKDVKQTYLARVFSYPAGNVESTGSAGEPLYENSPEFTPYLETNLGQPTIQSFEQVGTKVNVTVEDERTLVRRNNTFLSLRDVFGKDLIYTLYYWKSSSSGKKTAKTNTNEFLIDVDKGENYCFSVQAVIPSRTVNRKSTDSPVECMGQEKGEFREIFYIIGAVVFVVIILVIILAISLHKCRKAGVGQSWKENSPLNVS
T1 sequence (P00740 47-191 limits assumed): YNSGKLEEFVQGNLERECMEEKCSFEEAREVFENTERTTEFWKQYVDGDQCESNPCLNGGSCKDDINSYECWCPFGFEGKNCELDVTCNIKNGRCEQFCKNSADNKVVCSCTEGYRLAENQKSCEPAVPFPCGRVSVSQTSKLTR
T1 sequence (P00740 227-461 limits assumed): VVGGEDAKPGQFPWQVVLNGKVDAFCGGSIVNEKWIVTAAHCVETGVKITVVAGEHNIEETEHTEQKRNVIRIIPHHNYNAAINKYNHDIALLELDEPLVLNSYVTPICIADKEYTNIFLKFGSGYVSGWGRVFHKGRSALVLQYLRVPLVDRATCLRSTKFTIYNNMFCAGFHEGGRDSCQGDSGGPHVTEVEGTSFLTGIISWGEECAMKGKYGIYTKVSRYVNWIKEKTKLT
T1 sequence (P00451 20-391 limits assumed): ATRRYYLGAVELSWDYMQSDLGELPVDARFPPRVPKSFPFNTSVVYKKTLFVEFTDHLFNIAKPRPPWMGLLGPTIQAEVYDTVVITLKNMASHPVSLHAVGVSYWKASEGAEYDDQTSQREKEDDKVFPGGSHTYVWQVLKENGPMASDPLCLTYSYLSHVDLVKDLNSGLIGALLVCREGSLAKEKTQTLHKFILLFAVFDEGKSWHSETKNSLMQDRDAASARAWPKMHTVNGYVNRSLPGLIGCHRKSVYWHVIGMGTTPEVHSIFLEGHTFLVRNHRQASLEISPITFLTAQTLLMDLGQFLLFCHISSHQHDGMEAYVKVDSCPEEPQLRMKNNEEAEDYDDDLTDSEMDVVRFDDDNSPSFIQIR
T1 sequence (P00451 392-759 limits assumed): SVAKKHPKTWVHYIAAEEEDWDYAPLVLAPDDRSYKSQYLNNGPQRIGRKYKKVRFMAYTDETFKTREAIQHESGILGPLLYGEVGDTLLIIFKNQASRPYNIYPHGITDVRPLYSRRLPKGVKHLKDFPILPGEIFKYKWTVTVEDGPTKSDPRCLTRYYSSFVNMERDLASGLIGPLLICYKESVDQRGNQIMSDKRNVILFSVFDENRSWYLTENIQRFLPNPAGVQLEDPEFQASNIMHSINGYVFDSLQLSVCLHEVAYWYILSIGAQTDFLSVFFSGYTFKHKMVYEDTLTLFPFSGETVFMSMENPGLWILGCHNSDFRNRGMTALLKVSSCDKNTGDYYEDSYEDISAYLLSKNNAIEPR
T1 sequence (P00451 1709-2351 limits assumed): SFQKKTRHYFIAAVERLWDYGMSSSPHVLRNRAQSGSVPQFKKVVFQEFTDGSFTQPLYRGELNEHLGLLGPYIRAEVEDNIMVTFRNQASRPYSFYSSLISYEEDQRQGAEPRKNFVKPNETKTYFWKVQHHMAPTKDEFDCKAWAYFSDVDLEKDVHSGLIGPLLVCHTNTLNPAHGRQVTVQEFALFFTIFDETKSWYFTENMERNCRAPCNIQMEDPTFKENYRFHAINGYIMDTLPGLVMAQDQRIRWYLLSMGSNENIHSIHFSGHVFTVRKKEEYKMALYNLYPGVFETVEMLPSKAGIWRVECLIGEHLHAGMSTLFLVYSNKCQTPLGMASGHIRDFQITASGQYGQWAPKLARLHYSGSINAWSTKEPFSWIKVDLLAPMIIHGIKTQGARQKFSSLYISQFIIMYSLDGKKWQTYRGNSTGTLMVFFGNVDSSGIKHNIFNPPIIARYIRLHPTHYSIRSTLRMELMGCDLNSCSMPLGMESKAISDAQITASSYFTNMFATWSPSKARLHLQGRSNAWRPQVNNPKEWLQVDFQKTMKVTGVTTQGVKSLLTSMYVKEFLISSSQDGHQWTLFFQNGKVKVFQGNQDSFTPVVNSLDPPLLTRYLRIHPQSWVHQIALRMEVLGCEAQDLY

On to CARGYTLADNGKAC [Peptide 111-124], for which the “Factor Xa Formation (% of Control Rate) Extrinsic” value in experiment [1] was 83 % of Control Rate. Moreover, the “Factor Xa Formation (% of Control Rate) Intrinsic” value in experiment [2] is on record as 121 % of Control Rate. The “Factor Xa Formation (% of Control Rate) RVVX” value with RVV-X was determined as 77. Besides, the “Thrombin Formation (% of Control Rate)” value in experiment [3] is 100 % of Control Rate.

Take “LYQAKRF *EGDRNTEQEEGG(K) [Peptide 238-259 + K]”: in experiment [1], the “Factor Xa Formation (% of Control Rate) Extrinsic” value is listed as 100 % of Control Rate. Further, the “Factor Xa Formation (% of Control Rate) Intrinsic” value in experiment [2] is listed as 71 % of Control Rate. For the same molecule, the “Factor Xa Formation (% of Control Rate) RVVX” value on RVV-X came out at 100. Moreover, in experiment [3], the “Thrombin Formation (% of Control Rate)” value was 98 % of Control Rate.

For AVLRLKTPITFRMNVAPACL [Peptide 284-303], the “Factor Xa Formation (% of Control Rate) Extrinsic” value in experiment [1] is on record as 19 % of Control Rate. For the same molecule, the “Factor X Activation (% Control) Experiment #1 Observed” value in experiment [1] (setting [7]) worked out at 35.0 % Control. Besides, the “Factor X Activation (% Control) Experiment #2 Observed” value in experiment [1] (setting [7]) worked out at 47.8 % Control. Moreover, the Ki in experiment [1] (Dixon plots, mean ± SD for 4 to 5 determinations, read-out: Ki for Factor X Activation, Extrinsic) amounted to 73.6 ± 7.79 µM; in experiment [2] (Dixon plots, mean ± SD for 4 to 5 determinations, read-out: Ki for Factor X Activation, Intrinsic), 3.05 ± 1.77 µM; on RVV-X (read-out: Ki for Factor X Activation, RVV-X) it was 123 ± 23.9 µM; in experiment [3] (assays varying the substrate prothrombin, read-out: Ki for Factor Xa Function), 16.2 ± 4.54 µM. In addition, the IC50 in experiment [1] (chromogenic assay, read-out: Concentration for 50% Inhibition, Rate of Factor Xa Formation, Extrinsic) was 78 µM; in experiment [4] (read-out: Concentration for 50% Inhibition, Coagulant Activity, Intrinsic, clotting assay), 46 µM; in experiment [2] (chromogenic assay, read-out: Concentration for 50% Inhibition, Rate of Factor Xa Formation, Intrinsic) it was 1.7 µM and < 5 µM; in experiment [5] (clotting assay, read-out: Concentration for 50% Inhibition, Coagulant Activity, RVV.X) it was 14 µM; at RVV-X (read-out: Concentration for 50% Inhibition, Rate of Factor Xa Formation, RVV.X) it was 104 µM; in experiment [6] (read-out: Concentration for 50% Inhibition, Coagulant Activity, Extrinsic, clotting assay) it was more than 500 µM. Moreover, the “inhibition of intrinsic pathway Factor X coagulant activity” value in experiment [4] (clot formation assay) is on record as “inhibited”. Further, the “Factor Xa Formation (% of Control Rate) Intrinsic” value in experiment [2] is listed as 0 % of Control Rate. In addition, in experiment [5] (clot formation assay), the “inhibition of RVV-X pathway Factor X coagulant activity” value was “inhibited”. Further, at RVV-X, the “Factor Xa Formation (% of Control Rate) RVVX” value is 34. The “Thrombin Formation (% of Control Rate)” value in experiment [3] is on record as 0 % of Control Rate. Also, the “prevention of thrombin formation compared to buffer only” value in experiment [3] (200 uM of each peptide) is on record as “greater than 40%”. The “inhibition of extrinsic pathway-mediated Factor X coagulant activity” value in experiment [6] (clot formation assay) is on record as “less potent inhibitor”.

Turning to TEQE*GGEAVHEVEVVIK [Peptide 253-270], the “inhibition of the rate and extent of Factor X activation by the extrinsic activation complex” value in experiment [1] (400 uM peptide, Factor X 5.25-84 nM (FIG. 1)) was “approximately 20%”. In addition, the “Factor Xa Formation (% of Control Rate) Extrinsic” value in experiment [1] was 100 % of Control Rate. In addition, the “Factor Xa Formation (% of Control Rate) RVVX” value on RVV-X is given as 71.

On to `C[C@H](NC(=O)[C@H](CC(=O)O)NC(=O)[C@H](CCC(=O)O)NC(=O)[C@H](CCC(N)=O)NC(=O)[C@H](CCCCN)NC(=O)[C@@H](NC(=O)[C@H](CC(=O)O)NC(=O)[C@H](Cc1ccc(O)cc1)NC(=O)CNC(=O)[C@H](C)NC(=O)[C@H](CS)NC(=O)[C@@H](N)Cc1ccccc1)[C@@H](C)O)C(=O)N[C@@H](CS)C(=O)O` [Peptide 363-375] (H-FCAGYDTKQEDAC-OH; N-terminus and C-terminus assumed), for which the “mode of inhibition of prothrombin activation” value in experiment [3] (Dixon plots, varying prothrombin) is “noncompetitive”.

With “IVGGQECKDGECPWQA(K) (C-terminal added Lys) [Peptide 195-210 + K]”, the “Factor Xa Formation (% of Control Rate) Extrinsic” value in experiment [1] is 88 % of Control Rate. The “Factor Xa Formation (% of Control Rate) Intrinsic” value in experiment [2] is 98 % of Control Rate. Also, the “Factor Xa Formation (% of Control Rate) RVVX” value with RVV-X amounted to 76. For the same molecule, in experiment [3], the “Thrombin Formation (% of Control Rate)” value is 99 % of Control Rate.

On to VVIKHNRFTKETYDFDI [Peptide 267-283], for which the inhibition at 400 µM in experiment [1] (400 uM peptide, Factor X 5.25-84 nM (FIG. 1), read-out: inhibition of the rate and extent of Factor X activation by the extrinsic activation complex) is not below 90%.

Values taken from US5187155A, “Anticoagulant peptides” (Board of Regents, The University of Texas System, priority 1989, dated 1993).
